Biological target: T1, Gr180 (Helicoverpa armigera, UniProt Z9OE30KH69)
T1 construct: wild type 411 residues (239 + 172 as printed); seven TM domains predicted
T1 sequence (Z9OE30KH69 1-411): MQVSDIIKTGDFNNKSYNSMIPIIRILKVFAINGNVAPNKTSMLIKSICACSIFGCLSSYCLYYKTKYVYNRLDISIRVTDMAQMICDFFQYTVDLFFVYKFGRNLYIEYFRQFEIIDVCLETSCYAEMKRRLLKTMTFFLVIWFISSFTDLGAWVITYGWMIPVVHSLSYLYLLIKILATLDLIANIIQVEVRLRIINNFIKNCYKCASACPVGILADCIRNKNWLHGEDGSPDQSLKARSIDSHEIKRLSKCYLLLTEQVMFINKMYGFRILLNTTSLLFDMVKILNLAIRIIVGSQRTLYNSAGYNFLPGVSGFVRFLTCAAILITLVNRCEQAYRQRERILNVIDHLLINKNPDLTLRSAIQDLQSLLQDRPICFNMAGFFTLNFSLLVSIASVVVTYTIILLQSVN
Experiment: two-electrode voltage clamp, Xenopus oocytes
Type: cell-based
Conditions: 10^-2 M coumarin in Ringer solution; holding potential -80 mV; Gr180 expressed alone; agonist

O=c1ccc2ccccc2o1 [coumarin]
average current at 10^-2 M: 241 nA

Reference: paper PMC9581421, “Functional analysis of a bitter gustatory receptor highly expressed in the larval maxillary galea of Helicoverpa armigera” (PLoS Genetics, 2022)
